Consider eleven compounds from ChEMBL document CHEMBL1201862, “PubChem BioAssay data set” (2004).

Among the test systems are ACHN; BT-549; COLO 205; EKVX; HCT-116; HL-60; HOP-62; HOP-92; Hs-578T; Malme-3M; NCI-H226; NCI-H23; NCI-H460; NCI/ADR-RES; OVCAR-4; PC-3; SW-620; UACC-62; SR.
Experiment in all cases: NCI anticancer screen, dose series, 48 h

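Test compounds were applied to cells in 96-well plates for 48 hours at 5 doses. GI50 marks 50% less growth.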 Activity calls are given as the source filed them. No stated cut-off is given here; in the data, active = GI50 up to about 1.1 µM and inactive = higher.

As to `CN(CC(=O)O)CC(=O)O`, the GI50 is > 100 µM (inactive) with ACHN; > 100 µM (inactive) in the assay on BT-549; 68.2 µM (inactive) in the assay on COLO 205; > 100 µM (inactive) in the assay with EKVX; > 100 µM (inactive) in the assay with HCT-116; > 100 µM (inactive) in the assay on HL-60. Besides, the GI50 in the assay on HOP-62, in the assay with HOP-92, in the assay on Hs-578T, in the assay on Malme-3M, with NCI-H226 and in the assay with NCI-H23 was > 100 µM (inactive) throughout. Also, the GI50 in the assay on NCI-H460, in the assay with NCI/ADR-RES, with OVCAR-4, with PC-3, in the assay on SW-620 and in the assay with UACC-62 was > 100 µM (inactive) each time.

For the compound `O=c1c(C(c2ccc(OCc3ccccc3)cc2)c2c(O)oc3ccccc3c2=O)c(O)oc2ccccc12`, the GI50 was 23.4 µM (inactive) in the assay with ACHN; 24.9 µM (inactive) in the assay on BT-549; 46 µM (inactive) in the assay on COLO 205; 39 µM (inactive) with EKVX; 36.8 µM (inactive) in the assay on HCT-116; 32.8 µM (inactive) with HL-60. In addition, the GI50 was 47.5 µM (inactive) with HOP-62; 36.2 µM (inactive) with HOP-92; 34.3 µM (inactive) in the assay with Hs-578T; 28.6 µM (inactive) in the assay on Malme-3M; 30.7 µM (inactive) in the assay on NCI-H226; 35.7 µM (inactive) in the assay on NCI-H23. For the same compound, the GI50 is 35 µM (inactive) in the assay with NCI-H460; 34.2 µM (inactive) with NCI/ADR-RES; 46.1 µM (inactive) in the assay with OVCAR-4; 39.7 µM (inactive) in the assay on PC-3; 57.4 µM (inactive) in the assay on SW-620; 37.5 µM (inactive) in the assay with UACC-62.

Take `C[C@]12OC[C@H](c3ccccc3)N1C(=O)C1[C@H]2CC12SCCS2` (stereo partly specified): the GI50 in the assay on ACHN, in the assay on BT-549, in the assay on COLO 205, in the assay with EKVX, in the assay on HCT-116 and in the assay with HOP-62 was > 100 µM (inactive) each time. The GI50 in the assay on HOP-92, in the assay on Hs-578T, with Malme-3M, with NCI-H226, in the assay with NCI-H23 and with NCI-H460 was > 100 µM (inactive) each time. Also, the GI50 in the assay on NCI/ADR-RES, in the assay on OVCAR-4, in the assay with PC-3, with SR, in the assay with SW-620 and in the assay with UACC-62 was > 100 µM (inactive) throughout.

With `CC(=O)c1c(-c2ccccc2)c(-c2ccc(OCCN(C)C)cc2)n2ccccc12`, the GI50 was 15.8 µM (inactive) with ACHN; 14.9 µM (inactive) in the assay on BT-549; 14 µM (inactive) in the assay on COLO 205; 17.5 µM (inactive) in the assay with EKVX; 13.3 µM (inactive) in the assay with HCT-116; 16.3 µM (inactive) in the assay on HL-60. Also, the GI50 with HOP-92 is 10.1 µM (inactive); in the assay on Hs-578T it was 16.3 µM (inactive); in the assay with Malme-3M, 11.9 µM (inactive); with NCI-H226, 15.2 µM (inactive); in the assay on NCI-H23, 18.7 µM (inactive); in the assay on NCI-H460, 13.2 µM (inactive). For the same compound, the GI50 with NCI/ADR-RES is 14.5 µM (inactive); with OVCAR-4, 24.8 µM (inactive); in the assay on PC-3, 16.2 µM (inactive); in the assay on SW-620, 17.9 µM (inactive); in the assay on UACC-62, 15.7 µM (inactive).

Take `CN(C)CCNc1nc2ccccc2c2c1C(=O)c1ccccc1-2`: the GI50 with ACHN is 0.0834 µM (active); in the assay with BT-549, 0.914 µM (active); with COLO 205 it was 0.303 µM (active); in the assay on EKVX, 0.361 µM (active); in the assay with HCT-116, 0.049 µM (active); in the assay with HL-60, < 0.0432 µM (active). For the same compound, the GI50 in the assay with HOP-62 was 0.233 µM (active); in the assay on HOP-92, 0.327 µM (active); in the assay with Hs-578T, 2.1 µM (inactive); with Malme-3M, 0.251 µM (active); with NCI-H226 it was 0.205 µM (active); in the assay with NCI-H23 it was 0.316 µM (active). Also, the GI50 is < 0.0194 µM (active) in the assay with NCI-H460; 0.267 µM (active) with NCI/ADR-RES; 0.338 µM (active) in the assay on OVCAR-4; 0.27 µM (active) in the assay with PC-3; 0.137 µM (active) with SW-620; 0.0849 µM (active) with UACC-62.

Take `Cc1cc2c(c(=O)n1C)SCC2`: the GI50 in the assay with ACHN, with BT-549, in the assay with COLO 205, in the assay with HCT-116, with HOP-62 and in the assay on HOP-92 was > 100 µM (inactive) in each case. The GI50 in the assay on Hs-578T, with Malme-3M, in the assay with NCI-H226, in the assay with NCI-H23, in the assay on NCI-H460 and in the assay with NCI/ADR-RES was > 100 µM (inactive) throughout. Further, the GI50 with OVCAR-4, with PC-3, with SR, in the assay with SW-620 and in the assay with UACC-62 was > 100 µM (inactive) in each case.

With `C/C=C\C(CC(=O)NCC(=O)c1c[nH]c2ccccc12)CC(=O)OC` (stereo unspecified), the GI50 with ACHN, with BT-549, with COLO 205, in the assay on EKVX, in the assay with HCT-116 and with HOP-62 was > 100 µM (inactive) each time. Further, the GI50 with HOP-92, in the assay on Hs-578T, with Malme-3M, in the assay with NCI-H23, with NCI-H460 and in the assay on NCI/ADR-RES was > 100 µM (inactive) each time. Also, the GI50 in the assay on OVCAR-4, with PC-3, in the assay with SR, with SW-620 and in the assay on UACC-62 was > 100 µM (inactive) throughout.

In the case of `CN(C(=O)Cc1cccc(N=C=S)c1)[C@H]1CCCC[C@@H]1N1CCCC1`, the GI50 in the assay with ACHN was 14.1 µM (inactive); with BT-549, 11 µM (inactive); in the assay on COLO 205, 11.8 µM (inactive); in the assay with EKVX, 18.1 µM (inactive); in the assay on HCT-116, 13 µM (inactive); in the assay on HOP-62, 16.3 µM (inactive). Further, the GI50 was 13.8 µM (inactive) with HOP-92; 25.3 µM (inactive) in the assay with Hs-578T; 22.4 µM (inactive) with Malme-3M; 14.2 µM (inactive) in the assay on NCI-H23; 16.7 µM (inactive) in the assay with NCI-H460; 24.8 µM (inactive) in the assay on NCI/ADR-RES. Further, the GI50 in the assay on OVCAR-4 is 14.7 µM (inactive); in the assay on PC-3, 15.2 µM (inactive); in the assay with SR, 6.73 µM (inactive); in the assay on SW-620, 11.6 µM (inactive); with UACC-62, 15.7 µM (inactive).

For `CC(=O)OCC1OC(N2C(c3ccccc3)=CC(c3ccccc3)C(C#N)=C2S)C(OC(C)=O)C(OC(C)=O)C1OC(C)=O` (stereo unspecified), the GI50 is 5.58 µM (inactive) in the assay with ACHN; 5.57 µM (inactive) in the assay on BT-549; 1.89 µM (inactive) in the assay with COLO 205; 5.92 µM (inactive) in the assay with HCT-116; 4.06 µM (inactive) with HOP-62; 3.81 µM (inactive) with HOP-92. Further, the GI50 is 3.27 µM (inactive) in the assay with Hs-578T; 5.43 µM (inactive) in the assay on Malme-3M; 12.7 µM (inactive) in the assay on NCI-H226; 7.41 µM (inactive) in the assay on NCI-H23; 5.48 µM (inactive) in the assay on NCI-H460; 14.3 µM (inactive) in the assay with NCI/ADR-RES. In addition, the GI50 in the assay with OVCAR-4 was 1.55 µM (inactive); in the assay with PC-3, 2.77 µM (inactive); in the assay on SR it was 42 µM (inactive); in the assay on SW-620, 54.7 µM (inactive); in the assay on UACC-62, 0.583 µM (active).

`S=C(N1CCN(c2cccc(Cl)c2)CC1)N1CCN(c2cccc(Cl)c2)CC1`: the GI50 in the assay on ACHN was 50.8 µM (inactive); in the assay on BT-549 it was 75.3 µM (inactive); in the assay on COLO 205, 22 µM (inactive); in the assay with EKVX, 35 µM (inactive); with HCT-116, 21.2 µM (inactive); in the assay on HOP-62 it was 36.8 µM (inactive). For the same compound, the GI50 in the assay on Hs-578T is 18.6 µM (inactive); in the assay on Malme-3M, 21.2 µM (inactive); in the assay with NCI-H226, 22 µM (inactive); in the assay with NCI-H23, > 100 µM (inactive); in the assay on NCI/ADR-RES it was > 100 µM (inactive); in the assay with OVCAR-4 it was 28.9 µM (inactive). Further, the GI50 was 32.7 µM (inactive) in the assay with PC-3, 13.4 µM (inactive) with SR, > 100 µM (inactive) with SW-620 and 83 µM (inactive) in the assay with UACC-62.

Turning to `CC(=O)c1ccc2c3c1O[C@H]1c4[nH]c5ccccc5c4C[C@@]4(O)[C@@H](C2)N(CC2CC2)CC[C@]314`, the GI50 is 17.2 µM (inactive) in the assay with ACHN; 14.5 µM (inactive) in the assay on BT-549; 14.9 µM (inactive) in the assay on COLO 205; 20.2 µM (inactive) in the assay on EKVX; 15.5 µM (inactive) with HCT-116; 16.1 µM (inactive) in the assay with HL-60. Also, the GI50 in the assay on HOP-62 is 21 µM (inactive); in the assay on HOP-92 it was 14.5 µM (inactive); with Hs-578T, 0.933 µM (active); with Malme-3M, 21.3 µM (inactive); with NCI-H226 it was 17.1 µM (inactive); with NCI-H23, 17.7 µM (inactive). The GI50 in the assay with NCI-H460 was 0.497 µM (active); in the assay on NCI/ADR-RES, 8.67 µM (inactive); with OVCAR-4 it was 20.6 µM (inactive); in the assay on PC-3, 10.1 µM (inactive); in the assay with SW-620, 0.179 µM (active); with UACC-62, 16.5 µM (inactive).
